Experimental data from patent US20060276372A1, “Carotenoids, carotenoid analogs, or carotenoid derivatives for the treatment of proliferative disorders” (priority 2005, published 2006).
Read-outs that look alike come from different tables or passages of the source.

Experiments:
[1] = system: human prostate cancer cells; conditions: cited from earlier work
Connexin43 (Cx43) = assay: Relative Cx43 protein levels by Western blot in C3H10T1/2 cells (Example 3); type: cell-based; conditions: Mus musculus, C3H 10T1/2, 168 h, read-out: Fold induction of Cx43 expression
Text: Treatments/Compounds._TTNPB (Biomol, Plymouth Meeting, Pa.); stock 5×10^−6M in acetone, diluted 1:500 in culture media (final 10^−8 M in 0.2% acetone). Lycophyll (All-trans, 95% pure, Hawaii Biotech, Inc., Aiea, Hi.); stocks 10^−2 M and 10^−3 M in tetrahydroftiran (THF; Sigma, St. Louis, Mo.) diluted 1:1000 and stirred into culture media immediately before treatment (final 10^−5 M and 10^−6 M in 0.1% THF). Lycopene (92.7% pure, Chromadex, Inc., Santa Ana, Calif.); stocks 10^−2 M and 10^−3 M in tetrahydrofuran (Sigma, St. Louis, Mo.) diluted 1:1000 and stir into culture media immediately before treatment (final 10^−5 M and 10^−6 M in 0.1% THF). […]
SDS-PAGE Electrophoresis, Transfer and Immunodetection. […] Lysates were sonicated and protein concentrations quantified using the BCA protein determination assay (Pierce, Rockford, Ill.). […] Protein standards were utilized to confirm molecular weight of detected protein (SeeBlue, Invitrogen, Carlsbad, Calif.). […] Cx43 protein was detected according to the manufacturer's instructions using the WesternBreeze Immunodetection Kit (Invitrogen, Carlsbad, Calif.) and a rabbit primary antibody reactive against the cytoplasmic tail of Cx43 (1:2000, Sigma, St. Louis, Mo.).
Quantification of Relative Western Blot Cx43 Protein Levels. […]

10T1/2 cells [2] = type: cell-based, Mouse; conditions: for % Inhibition of MCA-induced transformation: 4 week period; for Foci/dish (mean Type II + Type III foci, 24 dishes): 4 week period after MCA
Description: Inhibition of MCA-induced neoplastic transformation in 10T1/2 cells. Cells were initiated with methylcholanthrene (MCA) […] (Sigma, St. Louis, Mo.) in acetone for 24 hours. Potential inhibitors of neoplastic transformation were added 7 days after removal of carcinogen as indicated and were renewed weekly by adding fresh medium supplemented with the appropriate drug for four weeks after removal of the carcinogen. The cultures were fixed and stained as described above. A total of 24 dishes of cells were used per treatment group. Type II and III foci were identified and then quantitated as described in Bertram et al., 1990, which is incorporated herein by reference.
Statistical analysis. Transformation data was analyzed by one-tailed, two-sample t-tests that incorporated unequal variances. The scrape-loading data was analyzed by paired t-tests.

CX43 protein = CX43 protein expression in 10T1/2 cells by Western blotting (Example 1); type: cell-based, Mouse; conditions: 4 days
Description: Cell lines and culture conditions. Mouse embryonic fibroblast 10T1/2 cells were cultured in Eagle's basal medium with Earle's salts supplemented with 4% fetal calf serum (Atlanta Biologicals, Norcross, Ga.), 25 μg/ml gentamicin sulfate (Sigma, St. Louis, Mo.), and passaged by trypsin/EDTA (Gibco Invitrogen, Carlsbad, Calif.) and maintained at 37° C. in a 5% CO2 atmosphere. The cells were allowed to grow until a monolayer was formed. The confluent cells were treated 7 days after seeding, unless otherwise indicated. dAST was prepared in a formulation of 20% EtOH and sterile water (0.2% final EtOH ) to minimize supramolecular aggregation, and the final concentration of EtOH in culture medium was 0.2%. CTX was dissolved in THF and added to media. TTNPB was dissolved in acetone (Sigma, St. Louis, Mo.) and cultures received a final acetone concentration of 0.1%.
Analysis of CX43 protein expression. Expression of CX43 protein in 10T1/2 cells was assessed by Western blotting. 10T1/2 cell monolayers were treated with the indicated carotenoid derivatives or with retinoids (as a positive control for the modulation of CX43 expression) 7 days after seeding in 100 mm dishes (Fisher Scientific, Pittsburgh, Pa.). Fours days after the drug was added to the cells, the cells were harvested, total cellular protein was isolated and the total protein concentration thereof was determined using a commercially available Protein Assay Reagent kit (Pierce Chemical Co., Rockford, Ill.). 40 μg of total cellular protein was resolved on an SDS-PAGE gel, transferred to a nitrocellulose membrane, and analyzed by Western blotting using the NuPage Western blotting kit (Invitrogen, Carlsbad, Calif.). CX43 was detected using a rabbit polyclonal antibody (Zymed, San Francisco, Calif.) raised against a synthetic polypeptide corresponding to the C-terminal domain common to mouse, human and rat CX43. Equal protein loafing was verified by immunoblotting for GAPDH, the expression of which is unaffected by treatment with retinoids or carotenoids, using a rabbit polyclonal GAPDH antibody was also used (Zymed, San Francisco, Calif.). CX43 and GAPDH immunoreactive bands were visualized by chemiluminescence using an anti-rabbit HRP-conjugated secondary antibody (Pierce Chemical Co., Rockford, Ill.). Images were obtained by exposure to X-ray film as previously described and scanned for digital analysis on the Fluoro-S Imager (Bio-Rad, Richmond, Calif.).

10T1/2 cells [3] = assay: Gap junctional communication, scrape-loading dye transfer assay; type: cell-based, Mouse; conditions: 7 days
Description: Gap junctional communication assay. Junctional permeability was assayed by the scrape-loading dye transfer assay essentially as described in El-Fouly et al., 1987, which is incorporated herein by reference. Briefly, confluent cultures of 10T1/2 cells grown in 60 mm dishes were treated with the indicated compounds for 7 days. The treated cells were washed with Ca^+2-free phosphate-buffered saline (PBS). 1.5 ml of Lucifer Yellow CH (Sigma, St. Louis, Mo.) 0.2% in PBS was then added, and linear cuts were made on the monolayer using a surgical scalpel. The cultures were incubated for 2 minutes at 37° C. then rinsed thoroughly with PBS. The cultures were then fixed with 2 ml of 5% formaldehyde in PBS. Images were digitally quantitated by intensity thresholding using the SigmaScan software program (Jandel Scientific, San Rafael, Calif.).

CX43 = CX43 plaques by indirect immunofluorescence in 10T1/2 cells; type: cell-based, Mouse; conditions: 10^−6 M, 4 days
Description: Analysis of CX43 protein by indirect immunofluorescence. Expression and assembly of CX43 into plaques was assessed by immunofluorescence staining essentially as described in Rogers et al, 1990, which is incorporated herein by reference. Briefly, confluent cultures of 10T1/2 cells were grown on Permanox plastic 4-chamber slides (Nalge Nunc International, Naperville, Ill.) and treated for 4 days as described above. Cells were fixed with −20° C. methanol overnight, washed in buffer, blocked in 1% bovine serum albumin (Sigma, St. Louis, Mo.) in PBS, incubated with the rabbit anti-CX43 antibody, and visualized with Alexa568 conjugated anti-rabbit secondary antibody (Molecular Probes, Eugene, Oreg.). Images were acquired with a Zeiss Axioplan microscope and a Roper Scientific cooled CCD camera.

[4] = Determination of aqueous solubility/dispersibility; type: physicochemical; conditions: USP-purified water, 2 hours, supernatant by UV/Vis
Description: (§1) Determination of aqueous solubility/dispersibility. 30.13 mg of 3 was added to 1 mL of USP-purified water. The sample was rotated for 2 hours, then centrifuged for 5 minutes. After centrifuging, solid was visible in the bottom of the tube. A 125-μL aliquot of the solution was then diluted to 25 mL. The sample was analyzed by UV/Vis spectroscopy at 436 nm, and the absorbance was compared to a standard curve compiled from 4 standards of known concentration. The concentration of the original supernatant was calculated to be 2.85 mg/mL and the absorptivity was 36.94 AU*mL/cm*mg. Slight error may have been introduced by the small size of the original aliquot.
as §1, with “Next, 30.80” for “Determination of aqueous solubility/dispersibility. 30.13”, “9” for “3”, “UViis” for “UV/Vis”, “411” for “436”, “The concentration of the original supernatant was calculated to be 2.85 mg/mL and the absorptivity was 36.94 AU*mL/cm*mg.” left out
Determination of aqueous solubility/dipsersibility of pAST. 23.70 mg of tetrasodium diphosphate astaxanthin was added to 1 ml of USP purified water. The mixture was stirred for 2 hours, and centrifuged for 5 minutes. The solution was diluted in water and analyzed by UV/vis spectroscopy at 480 nm and absorbance was compared to a standard curve compiled from 4 standards of known concentration.

In the case of CC(C)c1ccc2c(c1)c(SC(C)(C)C)c(CC(C)(C)C(=O)O)n2Cc1ccc(Cl)cc1 [MK886], the “apoptosis of prostate cancer cells” value ([1]; Ghosh et al.) is given as “massive apoptosis” and the “cells in culture killed” value ([1]; concentration of 10 mM) is given as “more than 90%”.

With CC(C)=CCC/C(C)=C/C=C/C(C)=C/C=C/C(C)=C/C=C/C=C(C)/C=C/C=C(C)/C=C/C=C(\C)CCC=C(C)C [lycopene, reference compound] the fold induction at 1 µM (Connexin43 (Cx43)) was 1.55 and the fold induction at 10 µM (Connexin43 (Cx43)) was 1.51.

With CC1=C(/C=C/C(C)=C/C=C/C(C)=C/C=C/C=C(C)/C=C/C=C(C)/C=C/C2=C(C)C(=O)C(OP(=O)([O-])[O-])CC2(C)C)C(C)(C)CC(OP(=O)([O-])[O-])C1=O.[Na+].[Na+].[Na+].[Na+] (stereo not shown) [pAST, tetrasodium diphosphate astaxanthin] the “cumulative toxicity, monolayer formation” value (10T1/2 cells [2]; 10^−5 M for 4 weeks) was “failed to form complete monolayers”, the neoplastic transformation (10T1/2 cells [2]; 10^−5 M for 4 weeks) was “strongly inhibited” and the “% Inhibition of MCA-induced transformation” value (“% Inhibition” below) (10T1/2 cells [2]; 10^−6 M) was 100%. The “Foci/dish (mean Type II + Type III foci, 24 dishes)” value (“Foci/dish” below) (10T1/2 cells [2]; 10^−6 M) was “No foci”, the “Foci/dish” value (10T1/2 cells [2]; 10^−6 M, listed as drawing 75) was 0 foci/dish and the “% Inhibition” value (10T1/2 cells [2]; 10^−7 M) was 44%. The “Foci/dish” value (10T1/2 cells [2]; 10^−7 M) was “substantially lowered levels of neoplastic transformation”, the “Foci/dish” value (10T1/2 cells [2]; 10^−7 M, listed as drawing 75) was 0.91 foci/dish and the “% Inhibition” value (10T1/2 cells [2]; 10^−8 M) was 36%. The “Foci/dish” value (10T1/2 cells [2]; 10^−8 M) was “substantially lowered levels of neoplastic transformation”, the “Foci/dish” value (10T1/2 cells [2]; 10^−8 M, listed as drawing 75) was 1.04 foci/dish and the “CX43 protein induction versus solvent-treated controls” value (CX43 protein; 10^−5 M) was “no change”. For the same compound, the “CX43 protein induction versus solvent-treated controls” value (CX43 protein; 10^−6 M) was “about 5 fold”, the “CX43 protein induction versus solvent-treated controls” value (CX43 protein; 10^−7 M) was about 2 fold and the “increase of GJIC (dye transfer) over untreated control cultures” value (10T1/2 cells [3]; 10^−9 M) was “approximately 4 fold”. The “relative amount of GJIC over concentration range” value (10T1/2 cells [3]; concentrations ranging from 10^−10 to 10^−6 M) was “remained constant over a 4-log concentration range”, the “CX43 immunoreactive plaques at regions of cell/cell apposition” value (CX43) was “increased the prevalence of CX43 immunoreactive plaques” and the aqueous solubility/dispersibility [4] was 25.21 mg/mL.
